Test results reported in BindingDB's records for doi:10.1021/jm00142a005 (1982).
Counter-ions that a name gives are not always drawn.

molecular target: Thromboxane-A synthase (Oryctolagus cuniculus); assay: Inhibitory activity against rabbit thromboxane synthetase

| IC50 [nM] | SMILES |
| --- | --- |
| 56 | O=C(O)CCCC/C=C\Cn1ccnc1 [8-Imidazol-1-yl-oct-6-enoic acid; hydrochloride] |
| 16 | O=C(O)/C=C\CCCCCn1ccnc1 [8-Imidazol-1-yl-oct-2-enoic acid] |
| 70 | O=C(O)/C=C/CCCCCn1ccnc1 [8-Imidazol-1-yl-oct-2-enoic acid; hydrochloride] |
| 30 | CC(CCCCCCn1ccnc1)C(=O)O (stereo not drawn) [8-Imidazol-1-yl-2-methyl-octanoic acid; hydrochloride] |

More lines, now with the values behind:

| SMILES | IC50 [nM] |
| --- | --- |
| CC(C)(CCCCn1ccnc1)CCC(=O)O [8-Imidazol-1-yl-4,4-dimethyl-octanoic acid; hydrochloride] | 71 |
| O=C(O)C1(CCCCCCn2ccnc2)CCCCC1 [1-(6-Imidazol-1-yl-hexyl)-cyclohexanecarboxylic acid; hydrochloride] | 46 |
| O=C(O)C(CCCCCCn1ccnc1)c1ccccc1 (stereo not drawn) [8-Imidazol-1-yl-2-phenyl-octanoic acid; hydrochloride] | 38 |
| CC(C)(CCCCCCC(=O)O)n1ccnc1 [8-Imidazol-1-yl-8-methyl-nonanoic acid; hydrochloride] | 90 |
